We go through 17 molecules from ChEMBL document CHEMBL5050844 (2019).

Common to all, as to assay type: functional, T cell line
Test [1] can be described thus: Induction of anti-CD3/CD28 antibodies-stimulated human T cell activation at 4 uM assessed fold increase in IL-2 secretion measured by ELISA assay. In general terms: In an ELISA, binding on a coated surface is turned into a signal by an enzyme label.
A short description of test [2]: Induction of anti-CD3/CD28 antibodies-stimulated human T cell activation at 1 uM assessed fold increase in CD25 expression measured by ELISA assay.
A short description of test [3]: Induction of anti-CD3 antibodies-stimulated human T cell activation at 8 uM assessed fold increase in IL-2 secretion measured by ELISA assay. Also: reference of the scale not given here.
Test [4] can be described thus: Induction of anti-CD3/CD28 antibodies-stimulated human T cell activation at 0.3 uM assessed fold increase in CD25 expression measured by ELISA assay.
The nature of test [5]: Induction of anti-CD3 antibodies-stimulated human T cell activation at 8 uM assessed fold increase in CD25 expression measured by ELISA assay. Also: reference of the scale not given here.
Test [6] is described as follows: Induction of anti-CD3/CD28 antibodies-stimulated human T cell activation at 0.3 uM assessed fold increase in IL-2 secretion measured by ELISA assay.
The nature of test [7]: Induction of anti-CD3 antibodies-stimulated human T cell activation at 1 uM assessed fold increase in CD25 expression measured by ELISA assay. Also: reference of the scale not given here.
Test [8] in a line: Induction of anti-CD3 antibodies-stimulated human T cell activation at 1 uM assessed fold increase in IL-2 secretion measured by ELISA assay. Also: reference of the scale not given here.
The nature of test [9]: Induction of anti-CD3/CD28 antibodies-stimulated human T cell activation at 1 uM assessed fold increase in IL-2 secretion measured by ELISA assay.
Test [10] in a line: Induction of anti-CD3/CD28 antibodies-stimulated human T cell activation at 4 uM assessed fold increase in CD25 expression measured by ELISA assay.

As to `CC(Cc1nncn1C)c1cc(N[C@@H]2CCOC2)nc(N2Cc3c(cccc3C(F)(F)F)C2=O)c1` (single isomer, unassigned), the “fold change (FC)” value in test [1] is 1.01; in [2] it was 1.01; in [3], 0.101; in test [4], “<=1”; in test [5], 0.801; in [6], 1.01. Moreover, the “fold change (FC)” value came to 0.601 in test [7], 0.051 in [8], 1.01 in [9] and 1.01 in test [10].
Consider `Cn1cnnc1C(F)(F)[C@](C)(F)c1cccc(N2Cc3c(cc(CN4CC(C#N)C4)cc3C(F)(F)F)C2=O)c1`, for which the “fold change (FC)” value in [1] is reported as 5; in test [2], 1.01; in test [3], 0.101; in test [4], 1.01; in [5] it was “>=1.001”; in test [6] it was 1.01. Further, the “fold change (FC)” value in test [7] is listed as 0.801; in test [8] it was 0.051; in test [9], 2.51; in test [10] it was 1.01.
Regarding `Cn1cnnc1C(F)(F)[C@](C)(F)c1cccc(N2Cc3c(cc(-c4cncc(F)c4)cc3C(F)(F)F)C2=O)c1`, the “fold change (FC)” value in test [1] is given as 2.51; in test [2] it was 1.01; in test [3], 0.151; in [4], “<=1”; in [5] it was 0.801; in test [6] it was 1.01. The “fold change (FC)” value turned out to be 0.601 in [7], 0.101 in test [8], 2.51 in test [9] and 1.01 in test [10].
Regarding `C[C@H](Sc1nncn1C)c1cccc(NC(=O)c2cc(C(=O)N3CC(O)C3)ccn2)c1`, the “fold change (FC)” value in test [1] is “<=1”; in [2] it was “<=1”; in test [3] it was “<=0.05”; in test [4], “<=1”; in test [5], 0.601; in test [6] it was “<=1”. Further, the “fold change (FC)” value was “<=0.6” in test [7], “<=0.05” in test [8], “<=1” in [9] and “<=1” in test [10].
Regarding `COc1cccc(C(=O)Nc2cccc([C@H](C)Sc3nncn3C)c2)n1`, the “fold change (FC)” value is recorded as 2.51 in test [1]; “<=1” in [2]; 0.151 in test [3]; “<=1” in test [4]; 0.601 in test [5]; 1.01 in [6]. Besides, the “fold change (FC)” value was “<=0.6” in [7], 0.101 in [8], 1.01 in [9] and 1.31 in test [10].
In the case of `Cc1nc(C(=O)Nc2cccc([C@H](C)Sc3nncn3C)c2)ccc1Cl`, the “fold change (FC)” value is recorded as “>=7.5” in [1]; 1.01 in test [2]; 0.051 in test [3]; “<=1” in test [4]; 0.801 in test [5]; 2.51 in [6]. Moreover, the “fold change (FC)” value in test [7] is “<=0.6”; in [8], “<=0.05”; in test [9], 5; in [10], 1.01.
Regarding `C[C@H](Cc1nncn1C)c1cccc(NC(=O)c2nc3c(C4CC4)cccc3[nH]2)c1`, the “fold change (FC)” value was 2.51 in test [1]; 1.01 in test [2]; “>=0.201” in test [3]; 1.01 in test [4]; 0.801 in test [5]; 1.01 in test [6]. Further, the “fold change (FC)” value in test [7] stood at 0.601; in test [8] it was 0.051; in test [9], 1.01; in [10] it was 1.01.
For the molecule `C[C@H](Sc1nncn1C)c1ccnc(N2Cc3c(cccc3C(F)(F)F)C2=O)c1`, the “fold change (FC)” value is on record as 2.51 in [1]; “<=1” in test [2]; “<=0.05” in test [3]; “<=1” in [4]; “<=0.6” in test [5]; 2.51 in test [6]. For the same molecule, the “fold change (FC)” value in [7] was “<=0.6”; in [8], “<=0.05”; in test [9] it was 2.51; in [10] it was “<=1”.
As to `Cn1cnnc1CC(c1cccc(N2Cc3c(cccc3C(F)(F)F)C2=O)c1)C(F)(F)F` (stereo not given), the “fold change (FC)” value in [1] is 1.01; in test [2], 1.01; in [3], 0.151; in [4], 1.01; in test [5], 0.801; in test [6], “<=1”. For the same molecule, the “fold change (FC)” value was 0.801 in [7], 0.101 in test [8], “<=1” in test [9] and 1.01 in test [10].
With `C[C@H](Cc1nncn1C)c1cccc(NC(=O)c2cncc(C(F)(F)F)n2)c1`, the “fold change (FC)” value was 5 in [1]; “>=1.76” in [2]; 0.051 in test [3]; “>=1.76” in test [4]; “>=1.001” in test [5]; 1.01 in test [6]. In addition, the “fold change (FC)” value was 0.601 in test [7], 0.051 in test [8], 2.51 in [9] and “>=1.76” in test [10].
On to `C[C@H](Cc1nncn1C)c1cccc(N2Cc3c(cc(C4CC4)nc3C3CC3)C2=O)c1`, for which the “fold change (FC)” value in test [1] is recorded as 5; in test [2], 1.01; in [3], “>=0.201”; in test [4], 1.01; in test [5], 0.801; in test [6], 1.01. Besides, the “fold change (FC)” value in test [7] was 0.601; in [8], 0.051; in [9], 1.01; in test [10] it was “>=1.76”.
As to `Cc1conc1C[C@@H](C)c1cccc(NC(=O)c2ccnc(C(F)(F)F)n2)c1`, the “fold change (FC)” value in test [1] was 2.51; in test [2] it was 1.01; in test [3] it was 0.101; in test [4] it was 1.01; in [5] it was “>=1.001”; in test [6], 1.01. Further, the “fold change (FC)” value is recorded as 0.801 in test [7], 0.051 in [8], 1.01 in test [9] and 1.01 in test [10].
In the case of `Cc1ccc(C(=O)Nc2cc([C@H](C)Sc3nncn3C)ccn2)nc1C1CC1`, the “fold change (FC)” value in test [1] is reported as 5; in test [2], “<=1”; in test [3] it was “<=0.05”; in [4] it was “<=1”; in test [5] it was “<=0.6”; in test [6] it was 2.51. Also, the “fold change (FC)” value in test [7] was “<=0.6”; in test [8] it was “<=0.05”; in test [9], 2.51; in [10], 1.01.
`C[C@H](Sc1nncn1C)c1cccc(NC(=O)c2cc(C(F)(F)F)cc(C(F)(F)F)n2)c1`: the “fold change (FC)” value in [1] is 1.01; in test [2], “<=1”; in test [3] it was “<=0.05”; in test [4], “<=1”; in test [5], 0.601; in [6] it was “<=1”. The “fold change (FC)” value is listed as “<=0.6” in [7], “<=0.05” in test [8], “<=1” in test [9] and 1.01 in [10].
Take `C[C@H](Sc1nncn1C)c1ccnc(NC(=O)c2cc(Cl)cc(C(F)(F)F)n2)c1`: the “fold change (FC)” value in test [1] is given as “<=1”; in test [2], 1.01; in test [3] it was “<=0.05”; in [4] it was 1.01; in [5] it was 0.601; in [6] it was 1.01. Besides, the “fold change (FC)” value in test [7] is on record as “<=0.6”; in test [8] it was “<=0.05”; in test [9] it was 1.01; in [10] it was “<=1”.
On to `Cc1cc(C(=O)Nc2cccc([C@H](C)Cc3nncs3)c2)nc(C2CC2)n1`, for which the “fold change (FC)” value in [1] was 5; in [2], 1.01; in [3] it was “>=0.201”; in test [4] it was 1.01; in test [5] it was 0.801; in [6], 1.01. For the same molecule, the “fold change (FC)” value in test [7] is 0.601; in test [8], 0.101; in test [9] it was 2.51; in [10], 1.01.
Take `C[C@H](Cc1nncn1C)c1cccc(NC(=O)c2cc(C(=O)N3CC[C@](C)(O)C3)ccn2)c1`: the “fold change (FC)” value in test [1] is “<=1”; in test [2], 1.31; in test [3] it was “<=0.05”; in test [4] it was 1.51; in test [5], “<=0.6”; in [6], “<=1”. The “fold change (FC)” value in test [7] is listed as “<=0.6”; in test [8] it was “<=0.05”; in test [9] it was “<=1”; in test [10], 1.51.
